Where a SMILES comes first, the peptide text is derived from it. [ ]: non-standard residue; d: D form. ξ: configuration not given here. ξLac(3-iPr) = CC(C)CC(O)C(=O)O; NMeV = CN[C@H](C(=O)O)C(C)C; βAla = NCCC(=O)O

These results are taken from publication PMC8780978, “Antiplatelet and Antithrombotic Effects of Isaridin E Isolated from the Marine-Derived Fungus via Downregulating the PI3K/Akt Signaling Pathway” (Marine Drugs, 2021).

Data set [1] is described as follows: Hematologic parameters after single intragastric dose. It is filed as in vivo, mice. The conditions noted are these: 3 h. How it is done:
Mice were intragastrically administrated with a single dose of isaridin E (100 mg/kg) or vehicle at 3 h before anesthesia. Whole blood was drawn from the abdominal aorta and collected in K2EDTA anticoagulant tubes to evaluate the hematologic parameters with an automatic hematology analyzer (BC-2800 vet, Mindray, Shenzhen, China). The citrated blood was centrifuged at 1500× g (25 °C) for 15 min to obtain the platelet-poor plasma (PPP). PPP was then used to measure the coagulation parameters, including ATPP, PT, TT, and FIB, with an automated coagulation analyzer (RAC-030, Rayto, Shenzhen, China).

Data set [2] in a line: Tail-bleeding assay. How it is done:
Mice were assigned randomly to […] and intragastrically administrated with a single dose of vehicle, isaridin E (12.5, 25, 50, or 100 mg/kg), or clopidogrel (10 mg/kg) at 3 h before the cutting-tail experiment. Tails were transected at a distal margin of 5 mm and were immediately immersed into 10 mL of saline at 37 °C. The bleeding time was recorded as when the observed bleeding ceased.

Data set [3] has as its system washed mouse platelets. Description: Thrombin-induced platelet aggregation. The data set is classed as cell-based. Particulars: thrombin 0.02 U/mL, p > 0.05. How it is done:
(§1) Washed platelets were prepared as previously described by Zhongren Ding et al.. Whole blood was collected from the abdominal aorta using a syringe containing 3.8% sodium citrate (9:1, V/V) as an anticoagulant. Citrated blood (2 mL) was centrifuged at room temperature at 300× g for 2 min to obtain platelet-rich plasma (PRP). Platelets were obtained by the further centrifugation of PRP at 700× g for 2 min, and resuspended in Tyrode’s buffer (138 mM of NaCl, 2.7 mM of KCl, 1 mM of MgCl2, 3 mM of NaH2PO4, 5 mM of glucose, 10 mM of HEPES, pH 7.4) with 0.02 U/mL apyrase (A6410, Sigma-Aldrich, St. Louis, MO, USA) to a density of 3 × 10^8 of platelets/mL for use.
(§2) The platelet aggregation and release assay were performed as previously reported. […] The platelet aggregation was assessed using a lumi-aggregometer (700-2, Chrono-Log, Havertown, PA, USA) with a stirring speed of 1200 rpm at 37 °C. The release of ATP was simultaneously monitored using Luciferin/luciferase reagent (395, Chrono-Log, Havertown, PA, USA). Aggregation traces and ATP release traces were monitored continuously for at least 10 min.

The test system of data set [4] is washed mouse platelets. Description: Collagen-induced platelet aggregation. The data set is classed as cell-based. Particulars: collagen 1 μg/mL, p > 0.05. How it is done: as §1, §2
Data set [5] can be described thus: FeCl3-induced carotid artery thrombosis mouse model. The data set is classed as in vivo, C57BL/6J mice. How it is done: The mouse model of carotid artery thrombosis induced by FeCl3 injury was performed and monitored by a stereoscopic fluorescence microscope as previously described. […] Mice were then anesthetized with a single dose of sodium pentobarbital (60 mg/kg, i.p., Sigma-Aldrich, St. Louis, MO, USA). Rhodamine 6G (83697, Sigma-Aldrich, St. Louis, MO, USA; 0.5 mg/mL) was injected into the right jugular vein to label platelets. The carotid artery (CA) was carefully exposed, and a black "U"-shaped plastic (3 mm) was inserted under the CA gently to block background fluorescence. Filter papers (1 × 2 mm) with 7.5% saturated FeCl3 solution were applied topically for 1 min, and thrombus formation in the injured CA was recorded in real time using a stereoscopic fluorescence microscope (M205FA, Leica, Wetzlar, Germany) for 12 min.

The subject of data set [6] is Akt. Description: ADP-induced phosphorylation of Akt, Western blot. It is filed as cell-based, human. Particulars: 50 μM, Meg-01 cells. How it is done:
Western blotting was performed as described in our previous study. Meg-01 cells were lysed with protein lysis buffer (P0013, Beyotime Biotechnology, Haimen, China) containing a protease inhibitor cocktail (539131, Millipore, Billerica, MA, USA) and phosphatase inhibitor cocktail (K1012, APExBIO, Houston, TX, USA). The samples (20 μg) were then separated by 8% SDS-PAGE gel and transferred onto PVDF membranes. The PDVF membranes were incubated with primary antibodies at 4 °C for 12 h. After incubating with the appropriate HRP-conjugated secondary antibodies (7076, 7074, Cell Signaling Technology, Danvers, MA, USA), blots were detected with chemiluminescent HRP substrate (P90719, Millipore, Billerica, MA, USA) using the ChemiDoc XRS+ system (BIO-RAD, Hercules, CA, USA). Primary antibodies against the following antigens were listed: PI3K (4257, Cell Signaling Technology, Danvers, MA, USA), Phospho-PI3K (ab226842, Abcam, Cambridge, UK), Akt (4691, Cell Signaling Technology, Danvers, MA, USA), Phospho-Akt (4056, Cell Signaling Technology, Danvers, MA, USA), and β-actin (66009-1, Proteintech, Rosemont, IL, USA).

Details of data set [7]: method as in PMID 21438588. The conditions noted are these: cited from earlier work.
Where [8] appears, read: 100 mg/kg single gavage, n=5 mice.

As for `CC(C)CC1OC(=O)CCNC(=O)[C@H](C(C)C)N(C)C(=O)[C@H](C(C)C)N(C)C(=O)[C@H](Cc2ccccc2)NC(=O)[C@@H]2CCCN2C1=O` (stereo partly drawn) [Isaridin E, cyclo-[(OH) (S)-HMPA^1-L-Pro^2-L-Phe^3-N-Me-L-Val^4-N-Me-L-Val^5-β-Ala^6(CO)]] (cyclo(F[NMeV][NMeV][βAla][ξLac(3-iPr)]P)), in data set [1] (setting [8]), the “HCT (hematocrit)” value amounted to 39.5 ± 1.4%, the “LY % (lymphocyte percentage)” value was found to be 83.1 ± 2.5%, the “MCH (mean red blood cell hemoglobin)” value stood at 17.3 ± 0.4 pg and the “MCHC (mean red blood cell hemoglobin concentration)” value is 330 ± 8 g/L. Moreover, in data set [1] (setting [8]), the “MCV (mean red blood cell volume)” value is 51.1 ± 0.8 fL, the “MO % (monocyte percentage)” value stood at 2.7 ± 0.6%, the “MPV (mean platelet volume)” value was found to be 5.3 ± 0.3 fL and the “NE % (neutrophil percentage)” value was 14.8 ± 2.2%. Moreover, in data set [1] (setting [8]), the “PLT (platelet count)” value is 1233 ± 65 10^9/L, the “RBC (red blood cell)” value is reported as 7.8 ± 0.3 10^12/L, the “RDW (red cell distribution width)” value worked out at 15.2 ± 0.5% and the “WBC (white blood cell)” value is reported as 3.3 ± 0.5 10^9/L. In data set [1] (100 mg/kg single intragastric administration), the “hematological parameters versus NS- and vehicle-treated groups” value was “no significant differences”. For the same molecule, the “tail bleeding time versus vehicle control” value in data set [2] (12.5, 25, 50 or 100 mg/kg, single intragastric dose 3 h before, n = 5 mice) is listed as “no obvious effects”. In addition, in data set [2] (isaridin E 12.5-100 mg/kg), the “bleeding time compared with clopidogrel (10 mg/kg)” value is given as “significantly reduced”. Moreover, the “maximum platelet aggregation in response to thrombin” value in data set [3] is listed as “no significant differences”. Besides, the “maximum platelet aggregation in response to collagen” value in data set [4] is on record as “no significant differences”. In data set [5] (12.5, 25, 50, or 100 mg/kg oral gavage at 1, 24, 48 h before FeCl3 injury, at 12 min, dose-dependent), the maximum thrombus size entry is “reduced”. In addition, the “time to the first thrombus formation” value in data set [5] (12.5, 25, 50, or 100 mg/kg oral gavage at 1, 24, 48 h before FeCl3 injury, dose-dependent) was “significantly prolonged”. Moreover, the “antithrombotic effects relative to clopidogrel at 10 mg/kg” value in data set [5] (50 or 100 mg/kg) is “comparable to that of clopidogrel”. In addition, the “ADP-induced phosphorylation of Akt” value in data set [6] (30 min, ADP 5 μM 5 min) was “significantly suppressed”. In data set [6], the “total protein expression of Akt” value is “without altering”. Moreover, the insecticidal activity entry in data set [7] is “insecticidal activity”.
